According to publication PMC11928319 (Nature Plants, 2025):
Where no end group is shown, it is not given here.

Tested on: filter-sterile supernatant of D. japonica MF79
Assay: Peptide quantification by mass spectrometry after incubation in cell-free supernatant of D. japonica MF79
Assay type: in vitro ADME, Dyella japonica MF79
Details: for peptide degradation in culture supernatant of wild-type D. japonica MF79 / peptide depletion in supernatant of the D. japonica MF79 gspD mutant: 1 µM peptide, 1 h, filter-sterile supernatant, XVM2 (OD600 = 0.6), LC-MS; for Log10(total_area_MS1) / percent_rel_axenic: incubation 1h; for Log10(total_area_MS1): MS1 precursor area; for percent_rel_axenic: peptide relative to axenic
Method: Elicitors were also supplemented into the medium prior to solidification at a final concentration of 1 µM. The flg22 ([…]) and AtPep1 ([…]) peptides were synthesized by EZbiolab. elf18^R179 (Ac-[…]) and elf18 (Ac-[…]) were synthesized by GenScript and EZbiolab, respectively. […] Bacteria were pelleted by centrifugation (11,600 g, 2 min), and the supernatant was sterile-filtered using filter units with MF-Millipore membrane (0.22 µm; Millex). The supernatant was incubated in boiling water for 30 min for heat treatment. Then, 25 ml of 1× MS with 20 g l^−1 Bacto Agar was mixed with 25 ml of supernatant prior to medium solidification and poured into square petri dishes. Sterilized seeds were placed on solidified agar in square petri dishes and vertically incubated for 14 days.
Bacterial supernatants were prepared as described in ‘Agar-based cultivation of axenic plants and co-cultivation with bacteria, bacterial supernatants and elicitors’. Here, additionally, the peptides dRGF1 (DYSNPGHHP-Hyp-RHN) and PSY1 (D-Y(SO3H)-[…]-Hyp-Hyp-S) synthesized by Scilight Peptide were incubated for 1 h with 1 µM of peptides in a plant cultivation light chamber (day-light condition; see ‘Plant cultivation conditions’), and the samples were frozen at −20 °C until further processing. For the investigation of AtPep1 degradation, the AtPep1 peptide was first modified by acetylation (six to seven times). To this end, 100-µl aliquots of peptides were treated with 10 µl of NHS acetate solution (1 M NHS acetate in 50% ACN/PBS) and incubated for 30 min with shaking. The reaction was quenched by the addition of 100 µl of 100 mM Tris-HCl (pH 8.5) and incubated for 10 min. For comparison of the non-acetylated peptides with the above-described modified AtPep1 peptides, aliquots of the non-acetylated peptides were processed as described above, but without the modifying NHS reaction. To this end, 100-µl aliquots of the sample were mixed with 100 µl of PBS buffer (137 mM NaCl, 2.7 mM KCl, 10 mM Na2HPO4, 1.8 mM KH2PO4; pH 7.4). The samples were then further diluted with 100 µl of 100 mM Tris-HCl (pH 8.5) and incubated for 10 min. All samples were acidified with 5 µl of TFA and desalted using StageTips with C18 Empore disk membranes (3M)[109]. The samples were dried in a vacuum evaporator and dissolved in 10 µl of 2% ACN (0.1% TFA for analysis).
The samples were analysed using an EASY-nLC 1200 (Thermo Fisher) coupled to a QExactive Plus mass spectrometer (Thermo Fisher). Peptides were separated on 16-cm frit-less silica emitters (New Objective, 75 µm inner diameter), packed in-house with reversed-phase ReproSil-Pur C18 AQ 1.9 µm resin (Dr. Maisch). Peptides were loaded on the column and eluted for 50 min using a segmented linear gradient of 5% to 95% solvent B (0 min, 5% B; 0–5 min, 15% B; 5–35 min, 50% B; 35–45 min, 95% B; 45–50 min, 95% B) (solvent A: 0% ACN, 0.1% FA; solvent B: 80% ACN, 0.1% FA) at a flow rate of 300 nl min^−1. Mass spectra were acquired in data-dependent acquisition mode with a TOP10 method. Mass spectrometry spectra were acquired in the Orbitrap analyser with a mass range of 300–1,500 m/z at a resolution of 70,000 full width at half maximum (FWHM) and a target value of 3 × 10^6 ions. Precursors were selected with an isolation window of 1.3 m/z. Higher-energy collision dissociation (HCD) fragmentation was performed at a normalized collision energy of 25. Tandem mass spectrometry (MS/MS) spectra were acquired with a target value of 5 × 10^5 ions at a resolution of 17,500 FWHM, a maximum injection time of 85 ms and a fixed first mass of 100 m/z. Peptides with a charge of 1 or greater than 6 or with an unassigned charge state were excluded from fragmentation for MS/MS; dynamic exclusion for 20 s prevented repeated selection of precursors. The raw data were analysed on the MS1 level using Skyline (https://skyline.ms)[110], and the results were filtered for the respective intact peptides, or the acetylated version in the case of AtPep1. […]

[1] = MF79 gspD mutant supernatant, XVM2 medium, replicate 1
[2] = MF79 gspD mutant supernatant, XVM2 medium, replicate 2
[3] = MF79 gspD mutant supernatant, XVM2 medium, replicate 3
[4] = MF79 supernatant, XVM2 medium, replicate 1
[5] = MF79 supernatant, XVM2 medium, replicate 2
[6] = MF79 supernatant, XVM2 medium, replicate 3
[7] = axenic XVM2 medium control, replicate 2
[8] = axenic XVM2 medium control, replicate 3
[9] = axenic XVM2 medium control, replicate 1

Row | Substance | peptide degradation in culture supernatant of wild-type D. japonica MF79 | peptide depletion in supernatant of the D. japonica MF79 gspD mutant | Log10(total_area_MS1) [1] | Log10(total_area_MS1) [2] | Log10(total_area_MS1) [3] | percent_rel_axenic [1] [%] | percent_rel_axenic [2] [%] | percent_rel_axenic [3] [%] | Log10(total_area_MS1) [4] | Log10(total_area_MS1) [5] | Log10(total_area_MS1) [6] | percent_rel_axenic [4] [%] | percent_rel_axenic [5] [%] | percent_rel_axenic [6] [%] | Log10(total_area_MS1) [7] | Log10(total_area_MS1) [8] | percent_rel_axenic [7] [%] | percent_rel_axenic [8] [%] | Log10(total_area_MS1) [9] | percent_rel_axenic [9] [%]
1 | ATKVKAKQRGKEKVSSGRPGQHN [AtPep1] | similarly effective in degrading | depleted | 0 | 0 | 0 | 0 | 0 | 0 | 7.596 | 7.38 | 6.998 | 0.3481 | 0.2117 | 0.0878 | 10.0991 | 9.961 | 110.888 | 80.7256 |  | 
2 | Ac-SKEKFERTKPHVNVGTIG [elf18] | similarly effective in degrading | depleted | 7.363 | 7.327 | 7.195 | 0.1126 | 0.1036 | 0.0764 | 8.052 | 7.627 | 7.56 | 0.5496 | 0.2067 | 0.1772 | 10.2259 | 10.2716 | 82.063 | 91.1647 | 10.4148 | 126.772
3 | QRLSTGSRINSAKDDAAGLQIA [flg22] | similarly effective in degrading | depleted | 0 | 0 | 0 | 0 | 0 | 0 | 0 | 0 | 0 | 0 | 0 | 0 | 7.393 | 7.844 | 53.5357 | 151.5 | 7.6416 | 94.9639
